In US9573967B2, “N-heterocyclic carbene gold complexes with anticancer properties and methods of use thereof” (KING FAHD UNIVERSITY OF PETROLEUM AND MINERALS, priority 2015, dated 2017):

Legend:
Format in all cases: cell-based
[1] = test system: HCT15 (human cancer) cell line; assay: In vitro cytotoxicity, MTT assay, HCT15; conditions: for IC50: MTT assay, 24 h incubation with complex, read-out: IC50 values against HCT15 cancer cell line; for IC50 against HCT15 compared with cisplatin: in words
Protocol: (§1) The in vitro cytotoxicity tests were carried out for the gold(I) precursor, labeled as complex 0 and the three synthesized complexes labeled as complex 1, 2 and 3 and compared with cisplatin (standard classical anticancer drug) against three human cancer cell lines, HCT15, HeLa and A549 using MTT assay. The dose dependent cytotoxic effect was obtained by the stipulated increase in concentrations of cisplatin and gold complexes 0-3 against the fixed number of human cancer cells. The IC50 concentration of cisplatin and complexes 0-3 for different human cancer cell lines was obtained from a curve between compound concentration and percentage viability of cells (FIGS. 5-10, Table 6).
(§2) In phase contrast micrographs, a decreasing cell density and deformed cellular morphology could be observed with increasing concentration of complexes 0-3 (FIGS. 11-13). The dose dependent decrease in cell density was further supported by assessment of decreasing percent cell viability in MTT assay (FIGS. 5-10). The IC50 concentrations of gold complexes were calculated from a separate curve between complex concentration and % viability of cells plotted in Microsoft Excel 2007 (graphs not shown) using MTT assay data and explained by logarithmic regression equations (equations not shown).
The metal precursor (complex 0) and the three synthesized compounds 1-3 were evaluated for their in vitro cytotoxic activity against HCT15 (human cancer), HeLa (human cervical cancer) and A549 (human lung carcinoma) cell lines. The cells were seeded at 4×10^3 cells/well in 100 μL DMEM (Dulbecco's Modified Eagle's Medium) containing 10%. FBS (Fetal Bovine Serum) in 96-wells tissue culture plate and incubated for 72 h at 37° C., 5% CO2 in air and 90% relative humidity in CO2 incubator. After incubation, 100 μL of 50, 25, 12.5 and 6.25 μg/mL solutions of complexes (0-3), prepared in DMEM, were added to cells and the cultures were incubated for 24 h. The medium of wells was discarded and 100 μL DMEM containing MTT (3-(4,5-dimethylthiazol-2-yl)-2,5-diphenyltetrazolium bromide) (5 mg/mL) was added to the wells and incubated in CO2 incubator at 37° C. in dark for 4 h. After incubation, a purple colored formazan (artificial chromogenic dye, product of the reduction of water insoluble tetrazolium salts e.g., MMT by dehydrogenases and reductases) in the cells is produced and appeared as dark crystals in the bottom of the wells. The medium of culture was discarded from each well carefully to avoid disruption of monolayer and 100 μl of dimethyl sulfoxide (DMSO) was added in each well. […] The absorbance of the 96-wells plate was taken at 570 nm with Labsystems Multiskan EX-Enzyme-linked immunosorbent assay (EX-ELISA) reader against a reagent blank.

[2] = test system: A549 (human lung carcinoma) cell line; assay: In vitro cytotoxicity, MTT assay, A549; conditions: 24 h incubation with complex, read-out: IC50 values against A549 cancer cell line
Protocol: as §1
as §2, with “The dose dependent decrease in cell density was further supported by assessment of decreasing percent cell viability in MTT assay (FIGS. 5-10).” left out
(§3) The metal precursor (complex 0) and the three synthesized compounds 1-3 were evaluated for their in vitro cytotoxic activity against HCT15 (human cancer), HeLa (human cervical cancer) and A549 (human lung carcinoma) cell lines. […]

[3] = test system: HeLa (human cervical cancer) cell line; assay: In vitro cytotoxicity, MTT assay, HeLa; conditions: 24 h incubation with complex, read-out: IC50 values against HeLa cancer cell line
Protocol: as §1
as §2, with “The dose dependent decrease in cell density was further supported by assessment of decreasing percent cell viability in MTT assay (FIGS. 5-10).” left out
as §3

Compound | IC50 [1] [µM] | IC50 [2] [µM] | IC50 [3] [µM] | IC50 against HCT15 compared with cisplatin [1]
1,3-Bis(2,6-di-isopropylphenyl)imidazol-2-ylidenegold(I)chloride [Complex 0] | 122 | 180 | 172 | 
N.N.[Cl][Pt][Cl] [Cisplatin, cisplatin] | 29.5 |  |  | 
CCN(CC)C(=S)[S][Au][CH]1N(c2c(C(C)C)cccc2C(C)C)C=CN1c1c(C(C)C)cccc1C(C)C [Complex 2, [Au(Ipr)(S2CN(C2H5)2)]] |  |  |  | moderate potency but better than cisplatin
CC(C)c1cccc(C(C)C)c1N1C=CN(c2c(C(C)C)cccc2C(C)C)[CH]1[Au][S]C(=S)N(Cc1ccccc1)Cc1ccccc1 [Complex 3, [Au(Ipr)(S2CN(C7H7)2)]] |  |  |  | moderate potency but better than cisplatin
